Counter-ions that a name gives are not always drawn. Like-named read-outs stand apart in the source and are kept apart here.
Biological target: SARS-CoV-2 3CLpro (Severe acute respiratory syndrome coronavirus 2, UniProt P0DTD1)
Assay: biochemical
Type: biochemical
Design: Replicate_1 / Replicate_2 / mean / mean (LOPAC_screen_w_protease): unit not given here
Conditions: for inhibition at 5 µM: 4 h
[1] = sheet LOPAC_screen_w_protease, primary screen with protease, mean of two replicates, read-out: mean
[2] = sheet LOPAC_screen_w_protease, primary screen with protease, replicate 1, read-out: Replicate_1
[3] = sheet LOPAC_screen_w_protease, primary screen with protease, replicate 2, read-out: Replicate_2
[4] = LOPAC1280 primary screen with protease, 5 µM compound, replicate 1, read-out: Replicate_1 (LOPAC_screen_w_protease)
[5] = LOPAC1280 primary screen with protease, 5 µM compound, replicate 2, read-out: Replicate_2 (LOPAC_screen_w_protease)
[6] = LOPAC1280 primary screen with protease, 5 µM compound, mean of two replicates
[7] = LOPAC1280 primary screen with protease, 5 µM compound, mean of the two replicates
[8] = sheet LOPAC_screen_w_protease, LOPAC1280 at 5 µM, mean of two replicates, read-out: mean
[9] = sheet LOPAC_screen_w_protease, LOPAC1280 at 5 µM, replicate 1, read-out: Replicate_1
[10] = sheet LOPAC_screen_w_protease, LOPAC1280 at 5 µM, replicate 2, read-out: Replicate_2
[11] = LOPAC1280 primary screen with protease, 5 µM compound, replicate 1
[12] = LOPAC1280 primary screen with protease, 5 µM compound, replicate 2
[13] = sheet LOPAC_screen_w_protease, primary screen of LOPAC1280 at 5 µM with protease, mean of the two replicates
[14] = sheet LOPAC_screen_w_protease, primary screen of LOPAC1280 at 5 µM with protease, replicate 1
[15] = sheet LOPAC_screen_w_protease, primary screen of LOPAC1280 at 5 µM with protease, replicate 2
[16] = read-out: Replicate_1 (LOPAC_screen_w_protease)
[17] = read-out: Replicate_2 (LOPAC_screen_w_protease)
[18] = sheet LOPAC_screen_w_protease, primary screen of LOPAC1280 at 5 µM with protease, mean of the two replicates, read-out: mean
[19] = sheet LOPAC_screen_w_protease, primary screen of LOPAC1280 at 5 µM with protease, replicate 1, read-out: Replicate_1
[20] = sheet LOPAC_screen_w_protease, primary screen of LOPAC1280 at 5 µM with protease, replicate 2, read-out: Replicate_2
[21] = sheet LOPAC_screen_w_protease, LOPAC1280 primary screen with protease, 5 µM compound, mean of the two replicates
[22] = sheet LOPAC_screen_w_protease, LOPAC1280 primary screen with protease, 5 µM compound, replicate 1
[23] = sheet LOPAC_screen_w_protease, LOPAC1280 primary screen with protease, 5 µM compound, replicate 2
[24] = sheet LOPAC_screen_w_protease, LOPAC1280 primary screen at 5 µM, with protease, mean of the two replicates
[25] = sheet LOPAC_screen_w_protease, LOPAC1280 primary screen at 5 µM, with protease, replicate 1
[26] = sheet LOPAC_screen_w_protease, LOPAC1280 primary screen at 5 µM, with protease, replicate 2

Compound: NC(=Nc1ccccc1)NC(=O)c1nc(Cl)c(N)nc1N [Phenamil methanesulfonate]
- inhibition at 5 µM [1]: 2.43%
- inhibition at 5 µM [2]: 2.05%
- inhibition at 5 µM [3]: 2.81%

Compound: NC(=O)c1cc(N2CC2)c([N+](=O)[O-])cc1[N+](=O)[O-] [CB 1954]
- inhibition at 5 µM [4]: 0.308%
- inhibition at 5 µM [5]: 3.06%
- mean (LOPAC_screen_w_protease) [6]: 1.686

Compound: CN1CCN(CC(=O)N2c3ccccc3C(=O)Nc3cccnc32)CC1 [Pirenzepine dihydrochloride]
- inhibition at 5 µM [4]: 2.98%
- inhibition at 5 µM [5]: 0.888%
- mean (LOPAC_screen_w_protease) [7]: 1.931

Compound: C=C[C@@]1(C)CC(=O)[C@]2(O)[C@@]3(C)[C@@H](O)CCC(C)(C)[C@@H]3[C@H](O)[C@H](OC(C)=O)[C@@]2(C)O1 [Forskolin]
- inhibition at 5 µM [8]: 1.29%
- inhibition at 5 µM [9]: 1.85%
- inhibition at 5 µM [10]: 0.734%

Compound: O=C1Nc2ccccc2/C1=C1/Nc2ccccc2/C1=N\O [Indirubin-3'-oxime]
- mean (LOPAC_screen_w_protease) [6]: 1.392
- Replicate_1 (LOPAC_screen_w_protease) [11]: 2.012
- Replicate_2 (LOPAC_screen_w_protease) [12]: 0.7725

Compound: C[N+]1(C)[C@@H]2C[C@@H](OC(=O)[C@H](CO)c3ccccc3)C[C@H]1[C@@H]1O[C@@H]12 [(-)-Scopolamine methyl bromide]
- inhibition at 5 µM (sheet LOPAC_screen_w_protease, LOPAC1280 primary screen at 5 µM, with protease, mean of two replicates, read-out: mean): -1.17%
- inhibition at 5 µM (sheet LOPAC_screen_w_protease, LOPAC1280 primary screen at 5 µM, with protease, replicate 1, read-out: Replicate_1): 0.833%
- inhibition at 5 µM (sheet LOPAC_screen_w_protease, LOPAC1280 primary screen at 5 µM, with protease, replicate 2, read-out: Replicate_2): -3.16%

Compound: Cn1cnc2c(NC3CCCC3)ncnc21 [N6-Cyclopentyl-9-methyladenine]
- mean [13]: 3.328
- Replicate_1 [14]: 3.176
- Replicate_2 [15]: 3.4795

Compound: Cn1cnc([N+](=O)[O-])c1Sc1ncnc2nc[nH]c12 [Azathioprine]
- mean (LOPAC_screen_w_protease): 1.638
- inhibition at 5 µM [16]: 1.71%
- inhibition at 5 µM [17]: 1.57%

Compound: CC(C)NCC(O)COc1cccc2ccccc12.Cl (racemic) [(±)-Propranolol hydrochloride]
- Replicate_1: 2.83
- Replicate_2: 6.763
- mean: 4.797

Compound: CC(Cc1ccc(O)cc1)NCC(O)c1cc(O)cc(O)c1 (centres unmarked) [Fenoterol hydrobromide]
- inhibition at 5 µM (sheet LOPAC_screen_w_protease, LOPAC1280 primary screen with protease, 5 µM compound, mean of the two replicates, read-out: mean): 5.3%
- inhibition at 5 µM (sheet LOPAC_screen_w_protease, LOPAC1280 primary screen with protease, 5 µM compound, replicate 1, read-out: Replicate_1): 6.58%
- inhibition at 5 µM (sheet LOPAC_screen_w_protease, LOPAC1280 primary screen with protease, 5 µM compound, replicate 2, read-out: Replicate_2): 4.02%

Compound: c1ccc2cc(-c3ncc[nH]3)ccc2c1 [Benazoline oxalate]
- inhibition at 5 µM [18]: 3.39%
- inhibition at 5 µM [19]: 1.95%
- inhibition at 5 µM [20]: 4.83%

Compound: O=c1[nH]c2cc(Cl)c(Cl)cc2[nH]c1=O [6,7-Dichloroquinoxaline-2,3-dione]
- mean [21]: 4.331
- Replicate_1 [22]: 5.455
- Replicate_2 [23]: 3.207

Compound: CCCCCCCC/C=C\CCCCCCCC(=O)NCCc1ccc(O)c(O)c1 [N-Oleoyldopamine]
- mean (LOPAC_screen_w_protease) [7]: 2.025
- Replicate_1 (LOPAC_screen_w_protease) [11]: 0.1379
- Replicate_2 (LOPAC_screen_w_protease) [12]: 3.912

Compound: Cc1cnc(C(=O)NCCc2ccc(S(=O)(=O)NC(=O)NC3CCCCC3)cc2)cn1 [Glipizide]
- inhibition at 5 µM (read-out: Replicate_1 (LOPAC screen with protease)): 10.3%
- inhibition at 5 µM (read-out: Replicate_2 (LOPAC screen with protease)): 3.17%
- inhibition at 5 µM (read-out: mean (LOPAC screen with protease)): 6.73%

Compound: Clc1cccc(Cl)c1N=C1NCCN1 [Clonidine hydrochloride]
- mean (LOPAC_screen_w_protease): 1.822
- inhibition at 5 µM [16]: 1.42%
- inhibition at 5 µM [17]: 2.22%

Compound: CNc1cc(NS(=O)(=O)c2ccc(N)cc2)nc(NC)n1.Cl.Cl [Ro 04-6790 dihydrochloride]
- mean (sheet LOPAC_screen_w_protease, LOPAC1280 at 5 µM, mean of two replicates): 0.9819
- Replicate_1 (sheet LOPAC_screen_w_protease, LOPAC1280 at 5 µM, replicate 1): -0.4861
- Replicate_2 (sheet LOPAC_screen_w_protease, LOPAC1280 at 5 µM, replicate 2): 2.45

Compound: N[C@@H](COP(=O)(O)O)C(=O)O [O-Phospho-L-serine]
- mean [21]: 5.279
- Replicate_1 [22]: 3.193
- Replicate_2 [23]: 7.365

Compound: R(-)-SCH-12679 maleate
- mean [24]: 0.5011
- Replicate_1 [25]: 0.9263
- Replicate_2 [26]: 0.07597

Compound: CNc1ncnc2c1ncn2[C@H]1C[C@H](OP(=O)(O)O)[C@@H](COP(=O)(O)O)O1 [MRS 2179]
- mean [21]: 4.143
- Replicate_1 [22]: 4.368
- Replicate_2 [23]: 3.917

Compound: O=C(O)/C=C/C(=O)O.O=C(O)/C=C/C(=O)O.O=C(O)/C=C/C(=O)O.O=C1CCCN1CC#CCN1CCCC1.O=C1CCCN1CC#CCN1CCCC1 [Oxotremorine sesquifumarate salt]
- mean [21]: 4.476
- Replicate_1 [22]: 3.394
- Replicate_2 [23]: 5.5586

Compound: CCCCS(=N)(=O)CCC(N)C(=O)O (racemic) [DL-Buthionine-[S,R]-sulfoximine]
- mean [24]: 0.7813
- Replicate_1 [25]: 0.9596
- Replicate_2 [26]: 0.6029

Compound: NCCCS(=O)(=O)O.[Na] [3-Amino-1-propanesulfonic acid sodium]
- mean [21]: 5.742
- Replicate_1 [22]: 6.514
- Replicate_2 [23]: 4.97

Compound: COc1cc(C(O)CN)ccc1O.Cl (racemic) [(±)-Normetanephrine hydrochloride]
- mean [21]: 4.101
- Replicate_1 [22]: 4.337
- Replicate_2 [23]: 3.864

Compound: Cc1cccc(/C=C/c2ccccc2)n1 [SIB 1893]
- mean (sheet LOPAC_screen_w_protease, primary screen with protease, 5 µM, mean of two replicates): 0.4194
- Replicate_1 (sheet LOPAC_screen_w_protease, primary screen with protease, 5 µM, replicate 1): 2.242
- Replicate_2 (sheet LOPAC_screen_w_protease, primary screen with protease, 5 µM, replicate 2): -1.403

Compound: C[N+](C)(C)CCCCCC[N+](C)(C)C [Hexamethonium bromide]
- inhibition at 5 µM (sheet LOPAC_screen_w_protease, primary screen with protease, 5 µM, mean of two replicates, read-out: mean): 0.248%
- inhibition at 5 µM (sheet LOPAC_screen_w_protease, primary screen with protease, 5 µM, replicate 1, read-out: Replicate_1): 1.66%
- inhibition at 5 µM (sheet LOPAC_screen_w_protease, primary screen with protease, 5 µM, replicate 2, read-out: Replicate_2): -1.17%

Compound: CCCCCCN(CCCCCC)C(=O)Cc1c(-c2ccc(F)cc2)[nH]c2ccccc12
- mean [21]: 4.628
- Replicate_1 [22]: 5.9351
- Replicate_2 [23]: 3.32

Compound: NC(CCCCCP(=O)(O)O)C(=O)O (racemic) [(±)-2-Amino-7-phosphonoheptanoic acid]
- mean [13]: 3.542
- Replicate_1 [14]: 3.653
- Replicate_2 [15]: 3.43

Compound: CCCN1CCc2cccc3c2[C@H]1Cc1ccc(O)c(O)c1-3.Cl [R(-)-Propylnorapomorphine hydrochloride]
- mean (LOPAC screen with protease) (sheet LOPAC_screen_w_protease, primary screen at 5 µM, mean of two replicates): 100.867
- Replicate_1 (LOPAC screen with protease) (sheet LOPAC_screen_w_protease, primary screen at 5 µM, replicate 1): 101.086
- Replicate_2 (LOPAC screen with protease) (sheet LOPAC_screen_w_protease, primary screen at 5 µM, replicate 2): 100.647

Compound: C[C@@H]1O[C@H](C[N+](C)(C)C)C[C@H]1O.[Cl-] (racemic) [(±)-Muscarine chloride]
- mean [21]: 5.0033
- Replicate_1 [22]: 6.646
- Replicate_2 [23]: 3.361

Compound: CC(CN(C)C)CN1c2ccccc2CCc2ccccc21 (centres unmarked) [Trimipramine maleate]
- inhibition at 5 µM [1]: 2.36%
- inhibition at 5 µM [2]: 3.17%
- inhibition at 5 µM [3]: 1.55%

Compound: CC(C)NCC(O)c1ccc(O)c(O)c1.Cl (single isomer, unassigned; (-)) [(-)-Isoproterenol hydrochloride]
- mean (LOPAC_screen_w_protease) [7]: 2.084
- Replicate_2 (LOPAC_screen_w_protease) [12]: 1.275

Compound: CN(C)C/C=C(/c1ccc(Br)cc1)c1cccnc1 [Zimelidine dihydrochloride]
- inhibition at 5 µM [8]: 0.989%
- inhibition at 5 µM [9]: 1.05%
- inhibition at 5 µM [10]: 0.928%

Compound: CN1CCc2cc(Cl)c(O)cc2[C@@H](c2ccccc2)C1.Cl [R(+)-SCH-23390 hydrochloride]
- mean [13]: 3.494
- Replicate_1 [14]: 4.714
- Replicate_2 [15]: 2.274

Compound: O=C(O)c1cc(O)c2ccc(Cl)cc2n1 [7-Chlorokynurenic acid]
- inhibition at 5 µM [18]: 3.48%
- inhibition at 5 µM [19]: 3.97%
- inhibition at 5 µM [20]: 2.98%

Compound: Nc1nc2ccc(Cl)cc2c2nc(-c3ccco3)nn12 [CGS-15943]
- inhibition at 5 µM (read-out: Replicate_1): 3.31%
- inhibition at 5 µM (read-out: Replicate_2): 3.81%
- inhibition at 5 µM (read-out: mean): 3.56%
